Test results as given in patent US10040781B2, “Tank-binding kinase inhibitor compounds” (Gilead Sciences, Inc., priority 2014, dated 2018).

Tests used:
[1] = molecular target: IKKε (Homo sapiens (Human), UniProt Q14164); assay: IKKε TR-FRET enzymatic assay; format: biochemical; details: read-out: IKKe IC50
[2] = molecular target: TBK1 (Homo sapiens (Human), UniProt Q9UHD2); assay: TBK1 TR-FRET enzymatic assay;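 note: phosphorylation of a biotinylated Ser/Thr peptide by purified full-length recombinant TBK1, read by TR-FRET after 240 min at 25 °C, IC50 is the geometric mean of at least four runs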
TBK1, sequence (Q9UHD2 whole entry): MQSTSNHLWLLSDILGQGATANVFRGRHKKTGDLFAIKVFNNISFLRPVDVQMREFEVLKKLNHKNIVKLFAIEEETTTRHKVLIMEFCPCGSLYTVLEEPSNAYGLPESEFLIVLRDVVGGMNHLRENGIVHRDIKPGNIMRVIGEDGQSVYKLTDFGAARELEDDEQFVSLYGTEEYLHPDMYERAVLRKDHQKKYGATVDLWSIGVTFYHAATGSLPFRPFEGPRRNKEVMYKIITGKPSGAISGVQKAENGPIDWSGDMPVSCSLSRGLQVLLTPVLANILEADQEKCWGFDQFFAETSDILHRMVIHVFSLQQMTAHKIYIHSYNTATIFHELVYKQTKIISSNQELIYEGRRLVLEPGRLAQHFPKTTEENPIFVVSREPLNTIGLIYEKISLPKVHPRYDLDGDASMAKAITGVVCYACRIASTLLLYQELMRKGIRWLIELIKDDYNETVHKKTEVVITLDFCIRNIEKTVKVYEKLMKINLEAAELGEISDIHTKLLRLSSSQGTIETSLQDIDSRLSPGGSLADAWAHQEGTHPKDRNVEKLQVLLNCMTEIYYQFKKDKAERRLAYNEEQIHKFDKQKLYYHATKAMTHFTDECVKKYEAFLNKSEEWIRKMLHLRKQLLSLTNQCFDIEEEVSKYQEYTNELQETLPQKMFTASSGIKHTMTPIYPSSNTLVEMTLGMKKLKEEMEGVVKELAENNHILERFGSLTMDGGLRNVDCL

[3] = molecular target: hJAK2 (Homo sapiens (Human), UniProt O60674); assay: hJAK2 LANCE TR-FRET enzymatic assay; format: biochemical; details: read-out: JAK2 IC50
hJAK2, sequence (O60674 whole entry): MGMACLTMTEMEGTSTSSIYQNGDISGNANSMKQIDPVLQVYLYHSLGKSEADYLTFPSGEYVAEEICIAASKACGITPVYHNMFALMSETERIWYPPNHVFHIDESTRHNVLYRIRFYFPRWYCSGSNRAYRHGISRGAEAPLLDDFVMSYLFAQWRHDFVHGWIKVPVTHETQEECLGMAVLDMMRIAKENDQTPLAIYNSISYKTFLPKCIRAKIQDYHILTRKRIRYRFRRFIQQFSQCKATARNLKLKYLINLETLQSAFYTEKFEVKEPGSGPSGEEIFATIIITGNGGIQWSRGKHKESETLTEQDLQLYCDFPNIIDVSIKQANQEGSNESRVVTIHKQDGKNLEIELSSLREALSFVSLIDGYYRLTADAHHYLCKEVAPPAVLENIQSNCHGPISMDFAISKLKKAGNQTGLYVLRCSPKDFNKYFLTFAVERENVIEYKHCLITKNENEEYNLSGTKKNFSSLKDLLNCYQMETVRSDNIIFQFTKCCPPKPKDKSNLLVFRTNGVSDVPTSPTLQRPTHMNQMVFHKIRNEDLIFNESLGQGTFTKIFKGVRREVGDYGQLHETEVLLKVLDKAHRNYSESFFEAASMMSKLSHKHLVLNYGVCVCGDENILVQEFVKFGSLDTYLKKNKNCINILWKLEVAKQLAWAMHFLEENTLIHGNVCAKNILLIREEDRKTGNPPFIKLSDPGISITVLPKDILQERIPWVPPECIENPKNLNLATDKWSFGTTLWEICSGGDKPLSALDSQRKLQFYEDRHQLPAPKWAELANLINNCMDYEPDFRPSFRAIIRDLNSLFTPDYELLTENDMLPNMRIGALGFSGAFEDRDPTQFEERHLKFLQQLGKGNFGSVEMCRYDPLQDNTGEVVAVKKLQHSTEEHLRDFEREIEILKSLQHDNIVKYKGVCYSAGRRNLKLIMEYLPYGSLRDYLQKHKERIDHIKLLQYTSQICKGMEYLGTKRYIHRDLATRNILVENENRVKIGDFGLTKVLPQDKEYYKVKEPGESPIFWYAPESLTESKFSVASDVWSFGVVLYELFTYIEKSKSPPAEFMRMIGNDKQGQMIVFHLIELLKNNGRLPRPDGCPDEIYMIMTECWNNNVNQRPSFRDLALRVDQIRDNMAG

IKKε, sequence (Q14164 whole entry): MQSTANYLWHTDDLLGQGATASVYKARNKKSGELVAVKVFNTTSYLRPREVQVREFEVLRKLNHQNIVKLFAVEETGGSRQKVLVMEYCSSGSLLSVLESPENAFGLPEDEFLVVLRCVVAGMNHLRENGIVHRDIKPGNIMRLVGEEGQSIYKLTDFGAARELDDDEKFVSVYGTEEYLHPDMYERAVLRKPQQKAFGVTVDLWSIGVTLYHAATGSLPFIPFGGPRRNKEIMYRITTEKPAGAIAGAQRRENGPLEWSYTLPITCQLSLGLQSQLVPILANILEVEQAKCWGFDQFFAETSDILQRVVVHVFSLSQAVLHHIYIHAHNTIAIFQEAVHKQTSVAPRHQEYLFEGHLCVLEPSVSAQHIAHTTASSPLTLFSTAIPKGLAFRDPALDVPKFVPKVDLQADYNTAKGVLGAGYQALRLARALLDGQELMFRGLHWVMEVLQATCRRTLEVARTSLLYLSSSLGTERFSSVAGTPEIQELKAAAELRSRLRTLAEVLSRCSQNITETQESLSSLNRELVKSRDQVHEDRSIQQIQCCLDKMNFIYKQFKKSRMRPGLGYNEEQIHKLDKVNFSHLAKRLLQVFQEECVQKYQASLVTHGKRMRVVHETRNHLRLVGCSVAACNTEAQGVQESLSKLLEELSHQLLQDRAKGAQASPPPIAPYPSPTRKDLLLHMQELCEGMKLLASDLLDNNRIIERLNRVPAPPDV

Q: Which results are given for `C[C@H](O)C(=O)N1CC[C@H](Oc2ccc(-c3ncnc(Nc4ccc(N5CCN(CC6COC6)CC5)cc4)n3)cc2C#N)[C@H](F)C1` [Example 308, 2-(((3R,4S)-3-fluoro-1-((S)-2-hydroxypropanoyl)piperidin-4-yl)oxy)-5-(4-((4-(4-(oxetan-3-ylmethyl)piperazin-1-yl)phenyl)amino)-1,3,5-triazin-2-yl)benzonitrile]?
A: IC50 [1]: 1 nM; IC50 [2]: 2 nM; IC50 [3]: 475 nM

Q: Which results are given for `C[C@H](O)C(=O)N1CC[C@H](Oc2ccc(-c3ncnc(Nc4ccc(N5CCN(C6CCOCC6)CC5)cc4)n3)cc2C#N)[C@H](F)C1` [Example 309, 2-(((3R,4S)-3-fluoro-1-((S)-2-hydroxypropanoyl)piperidin-4-yl)oxy)-5-(4-((4-(4-(tetrahydro-2H-pyran-4-yl)piperazin-1-yl)phenyl)amino)-1,3,5-triazin-2-yl)benzonitrile]?
A: IC50 [1]: 1 nM; IC50 [2]: 2 nM; IC50 [3]: 423 nM

Q: With `C[C@H](O)C(=O)N1CC[C@H](Oc2ccc(-c3ncnc(Nc4ccc(C5CCN(C6COC6)CC5)c(F)c4)n3)cc2C#N)[C@H](F)C1` [Example 310, 2-(((3R,4S)-3-fluoro-1-((S)-2-hydroxypropanoyl)piperidin-4-yl)oxy)-5-(4-((3-fluoro-4-(1-(oxetan-3-yl)piperidin-4-yl)phenyl)amino)-1,3,5-triazin-2-yl)benzonitrile] as the compound, how does the IC50 [1] read?
A: 2 nM

Q: And the IC50 [2]?
A: 4 nM

Q: What about the IC50 [3] of the same compound?
A: ≥ 1000 nM

Q: For `C[C@H](O)C(=O)N1CC[C@H](Oc2ccc(-c3ncnc(Nc4ccc(N5CCN(C6(C)COC6)CC5)cc4)n3)cc2C#N)[C@H](F)C1` [Example 312, 2-(((3R,4S)-3-fluoro-1-((S)-2-hydroxypropanoyl)piperidin-4-yl)oxy)-5-(4-((4-(4-(3-methyloxetan-3-yl)piperazin-1-yl)phenyl)amino)-1,3,5-triazin-2-yl)benzonitrile], which IC50 [1] is on record?
A: 3 nM

Q: And the IC50 [2]?
A: 3 nM

Q: And the IC50 [3]?
A: 636 nM

Q: Which results are given for `C[C@H](O)C(=O)N1CC[C@H](Oc2ccc(-c3ncnc(Nc4ccc(N5CC6(CCOCC6)C5)cc4)n3)cc2C#N)[C@H](F)C1` [Example 313, 5-(4-((4-(7-oxa-2-azaspiro[3.5]nonan-2-yl)phenyl)amino)-1,3,5-triazin-2-yl)-2-(((3R,4S)-3-fluoro-1-((S)-2-hydroxypropanoyl)piperidin-4-yl)oxy)benzonitrile]?
A: IC50 [1]: 2 nM; IC50 [2]: 4 nM; IC50 [3]: 375 nM

Q: With `C[C@H](O)C(=O)N1CC[C@H](Oc2ccc(-c3ncnc(Nc4ccc(N5CCOC(C(N)=O)C5)cc4)n3)cc2C#N)[C@H](F)C1` (stereo partly drawn) [Example 314, 4-(4-((4-(3-cyano-4-(((3R,4S)-3-fluoro-1-((S)-2-hydroxypropanoyl)piperidin-4-yl)oxy)phenyl)-1,3,5-triazin-2-yl)amino)phenyl)morpholine-2-carboxamide] as the compound, how does the IC50 [1] read?
A: 1 nM

Q: What about the IC50 [2] of the same compound?
A: 3 nM

Q: What about the IC50 [3] of the same compound?
A: 609 nM

Q: `C[C@H](O)C(=O)N1CC[C@H](Oc2ccc(-c3ncnc(Nc4ccc(N5CCO[C@@H](C(N)=O)C5)cc4)n3)cc2C#N)[C@H](F)C1` [Example 315, (R)-4-(4-((4-(3-cyano-4-(((3R,4S)-3-fluoro-1-((S)-2-hydroxypropanoyl)piperidin-4-yl)oxy)phenyl)-1,3,5-triazin-2-yl)amino)phenyl)morpholine-2-carboxamide] was tested. Which IC50 [1] did it give?
A: 3 nM

Q: And the IC50 [2]?
A: 9 nM

Q: What about the IC50 [3] of the same compound?
A: 564 nM

Q: Which IC50 [1] does the source give for `C[C@H](O)C(=O)N1CC[C@H](Oc2ccc(-c3ncnc(Nc4ccc(N5CCO[C@H](C(N)=O)C5)cc4)n3)cc2C#N)[C@H](F)C1` [Example 316, (S)-4-(4-((4-(3-cyano-4-(((3R,4S)-3-fluoro-1-((S)-2-hydroxypropanoyl)piperidin-4-yl)oxy)phenyl)-1,3,5-triazin-2-yl)amino)phenyl)morpholine-2-carboxamide] here?
A: 2 nM

Q: What about the IC50 [2] of the same compound?
A: 3 nM

Q: What about the IC50 [3] of the same compound?
A: 347 nM

Q: `C[C@H](O)C(=O)N1CC[C@H](Oc2ccc(-c3ncnc(Nc4ccc(N5CC6COCC6C5)cc4)n3)cc2C#N)[C@H](F)C1` (stereo partly drawn) [Example 317, 2-(((3R,4S)-3-fluoro-1-((S)-2-hydroxypropanoyl)piperidin-4-yl)oxy)-5-(4-((4-(tetrahydro-1H-furo[3,4-c]pyrrol-5(3H)-yl)phenyl)amino)-1,3,5-triazin-2-yl)benzonitrile] was tested. Which IC50 [1] did it give?
A: 1 nM

Q: And the IC50 [2]?
A: 2 nM

Q: And the IC50 [3]?
A: ≥ 1000 nM

Q: What does the source list for `N#Cc1cc(-c2ncnc(Nc3ccc(N4CCN(C5COC5)CC4)cc3)n2)ccc1O[C@H]1CCN(C(=O)Cc2cnn[nH]2)C[C@H]1F` [Example 319, 2-(((3R,4S)-1-(2-(1H-1,2,3-triazol-5-yl)acetyl)-3-fluoropiperidin-4-yl)oxy)-5-(4-((4-(4-(oxetan-3-yl)piperazin-1-yl)phenyl)amino)-1,3,5-triazin-2-yl)benzonitrile]?
A: IC50 [1]: 7 nM; IC50 [2]: 4 nM; IC50 [3]: 102 nM

Q: Which IC50 [1] does the source give for `N#Cc1cc(-c2ncnc(Nc3ccc(N4CCN(C5COC5)CC4)cc3)n2)ccc1O[C@H]1CCN(C(=O)Cc2ccn[nH]2)C[C@H]1F` [Example 320, 2-(((3R,4S)-1-(2-(1H-pyrazol-5-yl)acetyl)-3-fluoropiperidin-4-yl)oxy)-5-(4-((4-(4-(oxetan-3-yl)piperazin-1-yl)phenyl)amino)-1,3,5-triazin-2-yl)benzonitrile] here?
A: 40 nM

Q: And the IC50 [2]?
A: 14 nM

Q: And the IC50 [3]?
A: 127 nM

Q: `Cc1cc(C(=O)N2CC[C@H](Oc3ccc(-c4ncnc(Nc5ccc(N6CCN(C7COC7)CC6)cc5)n4)cc3C#N)[C@H](F)C2)[nH]n1` [Example 321, 2-(((3R,4S)-3-fluoro-1-(3-methyl-1H-pyrazole-5-carbonyl)piperidin-4-yl)oxy)-5-(4-((4-(4-(oxetan-3-yl)piperazin-1-yl)phenyl)amino)-1,3,5-triazin-2-yl)benzonitrile] was tested. Which IC50 [1] did it give?
A: 2 nM

Q: And the IC50 [2]?
A: 3 nM

Q: What about the IC50 [3] of the same compound?
A: 164 nM

Q: `N#Cc1cc(-c2ncnc(Nc3ccc(N4CCN(C5COC5)CC4)cc3)n2)ccc1O[C@H]1CCN(C(=O)c2[nH]ncc2Cl)C[C@H]1F` [Example 322, 2-(((3R,4S)-1-(4-chloro-1H-pyrazole-5-carbonyl)-3-fluoropiperidin-4-yl)oxy)-5-(4-((4-(4-(oxetan-3-yl)piperazin-1-yl)phenyl)amino)-1,3,5-triazin-2-yl)benzonitrile] was tested. Which IC50 [1] did it give?
A: 8 nM

Q: What about the IC50 [2] of the same compound?
A: 5 nM

Q: And the IC50 [3]?
A: 192 nM

Q: `N#Cc1cc(-c2ncnc(Nc3ccc(N4CCN(C5COC5)CC4)cc3)n2)ccc1O[C@H]1CCN(C(=O)c2[nH]nc(N)c2Cl)C[C@H]1F` [Example 323, 2-(((3R,4S)-1-(3-amino-4-chloro-1H-pyrazole-5-carbonyl)-3-fluoropiperidin-4-yl)oxy)-5-(4-((4-(4-(oxetan-3-yl)piperazin-1-yl)phenyl)amino)-1,3,5-triazin-2-yl)benzonitrile] was tested. Which IC50 [1] did it give?
A: 3 nM

Q: What about the IC50 [2] of the same compound?
A: 3 nM

Q: And the IC50 [3]?
A: 75 nM

Q: With `COc1cc(Nc2ncnc(-c3ccc(O[C@H]4CCN(C(=O)[C@H](C)O)C[C@H]4F)c(C#N)c3)n2)ccc1N1CCC(N2CCOCC2)CC1` [Example 326, 2-(((3R,4S)-3-fluoro-1-((S)-2-hydroxypropanoyl)piperidin-4-yl)oxy)-5-(4-((3-methoxy-4-(4-morpholinopiperidin-1-yl)phenyl)amino)-1,3,5-triazin-2-yl)benzonitrile] as the compound, how does the IC50 [1] read?
A: 1 nM

Q: What about the IC50 [2] of the same compound?
A: 2 nM

Q: What about the IC50 [3] of the same compound?
A: 72 nM

Q: With `COc1cc(Nc2ncnc(-c3ccc(O[C@H]4CCN(C(=O)CC#N)C[C@H]4F)c(C#N)c3)n2)ccc1N1CCC(N2CCOCC2)CC1` [Example 327, 2-(((3R,4S)-1-(2-cyanoacetyl)-3-fluoropiperidin-4-yl)oxy)-5-(4-((3-methoxy-4-(4-morpholinopiperidin-1-yl)phenyl)amino)-1,3,5-triazin-2-yl)benzonitrile] as the compound, how does the IC50 [1] read?
A: 2 nM

Q: And the IC50 [2]?
A: 4 nM

Q: What about the IC50 [3] of the same compound?
A: 62 nM

Q: How did the IC50 [1] turn out when `C[C@H](O)C(=O)N1CC[C@H](Oc2c(F)cc(-c3ncnc(Nc4ccc(N5CCN(C6COC6)CC5)cc4)n3)cc2C#N)[C@H](F)C1` [Example 328, 3-fluoro-2-(((3R,4S)-3-fluoro-1-((S)-2-hydroxypropanoyl)piperidin-4-yl)oxy)-5-(4-((4-(4-(oxetan-3-yl)piperazin-1-yl)phenyl)amino)-1,3,5-triazin-2-yl)benzonitrile] was run?
A: 4 nM

Q: And the IC50 [2]?
A: 4 nM

Q: What about the IC50 [3] of the same compound?
A: ≥ 1000 nM

Q: What does the source list for `N#Cc1cc(-c2ncnc(Nc3ccc(N4CCN(C5COC5)CC4)cc3)n2)cc(F)c1O[C@H]1CCN(C(=O)CO)C[C@H]1F` [Example 329, 3-fluoro-2-(((3R,4S)-3-fluoro-1-(2-hydroxyacetyl)piperidin-4-yl)oxy)-5-(4-((4-(4-(oxetan-3-yl)piperazin-1-yl)phenyl)amino)-1,3,5-triazin-2-yl)benzonitrile]?
A: IC50 [1]: 3 nM; IC50 [2]: 4 nM; IC50 [3]: 648 nM

Q: How did the IC50 [1] turn out when `N#CCC(=O)N1CC[C@H](Oc2c(F)cc(-c3ncnc(Nc4ccc(N5CCN(C6COC6)CC5)cc4)n3)cc2C#N)[C@H](F)C1` [Example 330, 2-(((3R,4S)-1-(2-cyanoacetyl)-3-fluoropiperidin-4-yl)oxy)-3-fluoro-5-(4-((4-(4-(oxetan-3-yl)piperazin-1-yl)phenyl)amino)-1,3,5-triazin-2-yl)benzonitrile] was run?
A: 6 nM

Q: And the IC50 [2]?
A: 4 nM

Q: And the IC50 [3]?
A: 941 nM

Q: With `N#Cc1cc(-c2ncnc(Nc3ccc(N4CCN(C5COC5)CC4)cc3)n2)cc(F)c1O[C@H]1CCN(C(=O)CCO)C[C@H]1F` [Example 331, 3-fluoro-2-(((3R,4S)-3-fluoro-1-(3-hydroxypropanoyl)piperidin-4-yl)oxy)-5-(4-((4-(4-(oxetan-3-yl)piperazin-1-yl)phenyl)amino)-1,3,5-triazin-2-yl)benzonitrile] as the compound, how does the IC50 [1] read?
A: 14 nM

Q: And the IC50 [2]?
A: 7 nM

Q: And the IC50 [3]?
A: 943 nM

Q: What does the source list for `N#Cc1cc(-c2ncnc(Nc3ccc(OCCN4CCCC4)cc3)n2)ccc1OC1CCOCC1` [Example 332, 5-(4-((4-(2-(pyrrolidin-1-yl)ethoxy)phenyl)amino)-1,3,5-triazin-2-yl)-2-((tetrahydro-2H-pyran-4-yl)oxy)benzonitrile]?
A: IC50 [1]: 5 nM; IC50 [2]: 10 nM; IC50 [3]: 943 nM
